Data: patent publication US20210246109A1, “POTENT AND SELECTIVE INHIBITORS OF CYTOCHROME P450” (University of Kentucky Research Foundation, priority 2020, published 2021)
Values joined by “and” are separate entries in the source; they are usually repeats but may differ in a detail not shown here. Identical values can stand only once. Like-named read-outs stand apart in the source and are kept apart here.

Legend:
CYP1B1 = target: T1, CYP1B1 (Homo sapiens, UniProt Q16678); test: EROD assay in inducible CYP1B1 cell line; assay type: cell-based
T1 construct: expressed in transfected cells
T1 sequence (Q16678 1-543): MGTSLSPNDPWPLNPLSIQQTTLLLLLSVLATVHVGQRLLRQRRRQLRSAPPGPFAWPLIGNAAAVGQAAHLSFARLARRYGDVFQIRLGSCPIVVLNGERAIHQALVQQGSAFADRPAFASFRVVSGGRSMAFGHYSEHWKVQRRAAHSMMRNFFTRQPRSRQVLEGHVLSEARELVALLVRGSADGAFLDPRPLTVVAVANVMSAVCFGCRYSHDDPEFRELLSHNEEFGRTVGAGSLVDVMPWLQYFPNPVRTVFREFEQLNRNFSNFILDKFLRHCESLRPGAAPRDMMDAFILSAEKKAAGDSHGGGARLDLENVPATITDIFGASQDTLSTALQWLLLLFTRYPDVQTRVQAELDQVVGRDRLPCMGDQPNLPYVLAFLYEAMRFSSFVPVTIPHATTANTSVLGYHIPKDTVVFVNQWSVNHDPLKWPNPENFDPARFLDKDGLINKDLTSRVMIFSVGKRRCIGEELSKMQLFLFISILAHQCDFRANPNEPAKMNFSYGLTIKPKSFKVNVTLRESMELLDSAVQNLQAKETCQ
Protocol: (§1) The activity of the inhibitors was assessed in a novel cell based assay generated for the purpose of this project. Enzymatic turnover of CYP1B1 was measured using the ethoxy-resorufin-O-deethylase (EROD) assay with the fluorescent substrate, resorufin ethyl ether. Cell lines were generated where the gene for CYP1B1 alone or CYP1B1 and cytochrome P450 reductase (CPR) were both under the control of an inducible promoter. A cell line was generated for counter screening where the gene for CYP1A1 was used. CYP1A1 is the closest family member to CYP1B1.

CYP1A1 = target: T2, CYP1A1 (Homo sapiens, UniProt P04798); test: EROD assay in CYP1A1 counter-screen cell line; assay type: cell-based; conditions: for SI 1B1:1A1: selectivity index
T2 construct: expressed in transfected cells
T2 sequence (P04798 1-512): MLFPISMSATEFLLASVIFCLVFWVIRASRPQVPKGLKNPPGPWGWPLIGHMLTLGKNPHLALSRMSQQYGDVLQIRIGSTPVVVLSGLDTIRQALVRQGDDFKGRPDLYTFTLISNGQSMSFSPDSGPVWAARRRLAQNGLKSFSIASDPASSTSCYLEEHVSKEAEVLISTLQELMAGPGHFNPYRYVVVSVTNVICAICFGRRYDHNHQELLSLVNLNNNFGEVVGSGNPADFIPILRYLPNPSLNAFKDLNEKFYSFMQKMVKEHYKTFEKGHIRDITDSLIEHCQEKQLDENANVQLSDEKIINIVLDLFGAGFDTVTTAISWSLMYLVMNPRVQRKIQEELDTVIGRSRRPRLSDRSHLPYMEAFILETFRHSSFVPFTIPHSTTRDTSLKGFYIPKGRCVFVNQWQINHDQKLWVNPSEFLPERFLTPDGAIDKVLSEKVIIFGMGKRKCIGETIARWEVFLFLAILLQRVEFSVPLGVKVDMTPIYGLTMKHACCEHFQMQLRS
Protocol: as §1

[1] = target: T3, pooled human liver microsomes (pHLMs) (Homo sapiens, UniProt P05177); test: EROD counterscreen in pooled human liver microsomes; assay type: biochemical; conditions: for IC50: human, microsomes; for SI 1B1:HLM: selectivity index
T3 sequence (P05177 2-516): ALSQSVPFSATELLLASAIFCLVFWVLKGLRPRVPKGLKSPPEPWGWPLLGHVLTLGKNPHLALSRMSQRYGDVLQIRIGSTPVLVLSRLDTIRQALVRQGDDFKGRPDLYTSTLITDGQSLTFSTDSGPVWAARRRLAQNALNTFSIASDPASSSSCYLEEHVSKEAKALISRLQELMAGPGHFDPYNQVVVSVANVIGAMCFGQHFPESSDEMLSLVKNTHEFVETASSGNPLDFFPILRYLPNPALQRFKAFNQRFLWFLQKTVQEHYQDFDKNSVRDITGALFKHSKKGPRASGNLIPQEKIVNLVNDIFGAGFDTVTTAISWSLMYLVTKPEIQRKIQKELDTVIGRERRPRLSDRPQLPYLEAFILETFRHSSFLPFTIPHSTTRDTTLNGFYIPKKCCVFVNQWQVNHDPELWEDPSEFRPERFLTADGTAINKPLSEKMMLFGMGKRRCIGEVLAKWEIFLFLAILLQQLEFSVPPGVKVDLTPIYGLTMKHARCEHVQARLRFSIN
Excerpt: (§2) Human liver microsomes were used as a counterscreen to experimentally determine the magnitude of inhibitor selectivity.

[2] = Cytotoxicity, resazurin, 72 hours after compound addition; assay type: cell-based; conditions: human, HEK cells
Protocol: (§3) Cytotoxicity was assessed at 72 hours after compound addition using resazurin. The compounds that function as selective 1B1 inhibitors had no effect on cell health. This is an essential feature for any chemopreventative agent or molecules intended to block the detrimental action of an enzyme.

HEK = test: as above; assay type: cell-based; conditions: Table 3, HEK
Protocol: as §3

[3] = target: T3, pooled human liver microsomes (pHLMs); test: EROD counterscreen in pooled human liver microsomes; assay type: biochemical; set-up: IC50 pHLM; EROD assay; conditions: human, microsomes, Table 2; EROD assay
Excerpt: as §2

[4] = human, probe resorufin ethyl ether, Table 3, read-out: IC50 1A1
[5] = Table 1, 72 hours, resazurin, read-out: Cytotoxicity IC50
[6] = Table 2, EROD assay, read-out: IC50 CYP1B1
[7] = Table 2, EROD assay, read-out: IC50 CYP1A1

Row | SMILES | IC50 (CYP1B1; Table 3, read-out: IC50 1B1) | IC50 ([1]; Table 3, read-out: IC50 pHLM) [nM] | IC50 (CYP1A1; Table 3, read-out: IC50 1A1) | HEK cell viability % at 10 μM (HEK) [%] | other results
1 | COc1ccc(/C=C/c2cnccn2)c(OC)c1 [GL435] | 510 nM | 1570 ± 290 | 2600 nM | 71.4 | 
2 | COc1cc(/C=C/c2cnccn2)cc(OC)c1 [GL437] | 660 nM | 5270 ± 1600 | 4280 nM and 3290 nM | 103.1 | 
3 | COc1cc(/C=C/c2ccncn2)cc(OC)c1OC [GL465] | 260 nM | 4400 ± 1710 | 730 nM and 740 nM | 83.4 | 
4 | C#CCOc1ccc(-c2nc3ccccc3c(=O)[nH]2)cc1 [GL510] |  | 857 |  |  | IC50 at 72 h ([2]; Table 3, HEK, read-out: HEK cytotoxicity): 406 nM
5 | COc1ccc(-c2nc(O)c3ccccc3n2)c(OC)c1 [GL512] | 11.6 nM | 16900 | 2400 nM and 1040 nM | 85.3 | 
6 | COc1ccc(-c2nc3ccc(I)cc3c(=O)[nH]2)c(OC)c1 [GL513] | 36 nM | 26200 | 121 nM and 75 nM and 91 nM | 83.4 | 
7 | C#CCn1c(-c2ccc(OC)cc2OC)nc2ccc(I)cc2c1=O [GL514] | 660 nM | 105000 | 4420 nM and 3500 nM | 72.5 | 
8 | COc1cc(-c2nc3ccccc3c(=O)[nH]2)ccc1OCC#N [GL522] |  | > 10000 | 2270 nM and 970 nM | 80.6 | 
9 | N#CCOc1ccc(/C=C/c2ccncn2)cc1 [GL543] | 4.9 nM and 6.4 nM |  | > 10000 nM |  | IC50 (CYP1B1; Table 1, read-out: CYP1B1 IC50): 4.9 nM; IC50 (CYP1A1; Table 1, read-out: CYP1A1 IC50): > 10000 nM; IC50 ([1]; Table 1, read-out: hLM IC50): > 10000 nM; IC50 at 72 h [2, 5]: > 10000 nM
10 | N#CCOc1ccc(-c2nc(OCCCNC(=O)OCCOCCOCCOC(=O)NC34CC5CC(CC(C5)C3)C4)c3ccccc3n2)cc1 [GL581] | < 2.5 nM | > 10000 | 3580 nM |  | IC50 (CYP1B1; Table 1, read-out: CYP1B1 IC50): 0.12 nM; IC50 (CYP1A1; Table 1, read-out: CYP1A1 IC50): 3600 nM; IC50 at 72 h [2, 5]: > 10000 nM
11 | COc1ccc(-c2csc(-c3ccc(O)cc3)n2)c(OC)c1 [GL650] |  |  |  |  | IC50 (CYP1B1; [6]): 61.9 nM; IC50 (CYP1A1; [7]): 1960 nM; SI 1B1:1A1 (CYP1A1): 32; SI 1B1:HLM [1]: 89.7; IC50 [3]: 5550 nM
12 | COc1ccc(-c2csc(-c3cccnc3)n2)c(OC)c1 [GL654] |  |  |  |  | IC50 (CYP1B1; [6]): 19.8 nM; IC50 (CYP1A1; [7]): 151 nM; SI 1B1:1A1 (CYP1A1): 7.6; SI 1B1:HLM [1]: 0.00082; IC50 [3]: 0.1 nM
13 | Oc1ccc(-c2csc(-c3cccnc3)n2)cc1 [GL671] |  |  |  |  | IC50 (CYP1B1; [6]): 2230 nM; IC50 (CYP1A1; [7]): 1410 nM; SI 1B1:1A1 (CYP1A1): 0.63; SI 1B1:HLM [1]: 0.024; IC50 [3]: 526 nM
14 | Oc1ccc(-c2csc(-c3ccccn3)n2)cc1 [GL672] |  |  |  |  | IC50 (CYP1B1; [6]): 1020 nM; IC50 (CYP1A1; [7]): 1320 nM; SI 1B1:1A1 (CYP1A1): 1.3; SI 1B1:HLM [1]: 1.63; IC50 [3]: 1650 nM
15 | COc1ccc(-c2nc(-c3ccc(F)c(C(F)(F)F)c3)cs2)c(OC)c1 [GL674] |  |  |  |  | IC50 (CYP1B1; [6]): 0.98 nM; IC50 (CYP1A1; [7]): 5080 nM; SI 1B1:1A1 (CYP1A1): 5187; SI 1B1:HLM [1]: >10204; IC50 [3]: > 10000 nM
16 | c1ccc(-c2nc(-c3cccnc3)cs2)nc1 [GL681] |  |  |  |  | IC50 (CYP1B1; [6]): 2390 nM; IC50 (CYP1A1; [7]): 85 nM; SI 1B1:1A1 (CYP1A1): 0.035; SI 1B1:HLM [1]: 0.14; IC50 [3]: 3240 nM
17 | COc1cc(OC)cc(-c2nc(-c3ccc(F)cc3)cs2)c1 [GL683] |  |  |  |  | IC50 (CYP1B1; [6]): < 0.01 nM; IC50 [3]: > 10000 nM
18 | COc1cc(OC)cc(-c2nc(-c3cccc(C(F)(F)F)c3)cs2)c1 [GL684] |  |  |  |  | IC50 (CYP1B1; [6]): < 0.01 nM; IC50 (CYP1A1; [7]): 2780 nM; SI 1B1:1A1 (CYP1A1): >27800; SI 1B1:HLM [1]: >1000000; IC50 [3]: > 10000 nM

Continued, in another order:

Row | IC50 (CYP1B1; Table 3, read-out: IC50 1B1) | IC50 ([1]; Table 3, read-out: IC50 pHLM) [nM] | IC50 (CYP1A1; Table 3, read-out: IC50 1A1) | SMILES | HEK cell viability % at 10 μM (HEK) [%] | other results
19 | 76 nM | 910 ± 370 |  | COc1ccc(/C=C/c2ccncn2)c(OC)c1 [GL433] |  | activity as CYP1B1 inhibitor, in words (CYP1B1): potent; IC50 (CYP1B1; Table 1, read-out: CYP1B1 IC50): 76 nM; IC50 (CYP1A1; human, probe resorufin ethyl ether, Table 1, read-out: CYP1A1 IC50): 10000 nM; IC50 (CYP1A1; [4]): 10000 nM; IC50 ([1]; Table 1, read-out: hLM IC50): 1100 nM; IC50 at 72 h [2, 5]: > 10000 nM; IC50 (HEK; read-out: HEK cytotoxicity): > 10000 nM
20 | 760 nM | 2300 ± 980 | > 10000 nM | COc1cc(/C=C/c2ccncn2)cc(OC)c1 [GL443] | 105.2 | 
21 | 210 nM | 150 ± 80 | > 10000 nM | COc1cc(OC)c(/C=C/c2ccncn2)c(OC)c1 [GL456] | 93.6 | IC50 (CYP1A1; [4]): 10000 nM
22 | 310 nM | 420 ± 240 | 403 nM and 360 nM | COc1ccc(/C=C/c2cccnc2)c(OC)c1 [GL457] | 91.5 | 
23 | 2510 nM | 2260 ± 1050 | 4130 nM and 2500 nM | COc1ccc(/C=C/c2cncnc2)c(OC)c1 [GL458] | 95.8 | 
24 | 105 nM | 32900 | 5600 nM | C#CCOc1ccc(/C=C/c2ccncn2)cc1 [GL508] | 93.4 | IC50 (CYP1A1; [4]): 10000 nM
25 | 11.8 nM | 7710 | > 10000 nM | O=c1[nH]c(-c2ccc(OC/C(I)=C\I)cc2)nc2ccccc12 [GL511] | 64.3 | 
26 | 14 nM | 126000 | 4580 nM and 2460 nM and 1900 nM | C#CCOc1ccc(-c2nc3ccc(I)cc3c(=O)[nH]2)cc1 [GL516] | 40.8 | 
27 | > 500 nM | 146000 | > 10000 nM | COc1ccc(-c2nc3ccccc3c(=O)n2C)c(OC)c1 [GL517] | 107 | 
28 | 0.88 nM and 0.92 nM | 1740 | 2570 nM | N#CCOc1ccc(-c2nc3ccccc3c(=O)[nH]2)cc1 [GL520] | 89 | 
